According to ChEMBL document CHEMBL3046231 (Med Chem Res, 2008):

Assays:
[1] = test system: Mus musculus; assay: Antidepressant activity in Mus musculus albino (mouse) assessed as reversal of reserpine-induced ptosis at 75 umole/kg, ip after 3 hr by chi-square test relative to control; format: functional
[2] = test system: Mus musculus; assay: Toxicity in Mus musculus albino (mouse) assessed as effect on gross behavior at 75 umole/kg, ip; format: organism-based; settings: in vivo
[3] = test system: Mus musculus; assay: Anorexigenic activity in Mus musculus albino (mouse) assessed as reduction of milk intake at 75 umole/kg, ip relative to control; format: functional; set-up: scale not given: the % may be the effect or the level left

| Compound | Activity [1] [%] | Activity [2] | Activity [3] [%] |
| --- | --- | --- | --- |
| COc1cc(NC(=S)N(C)CCC(Oc2ccc(C(F)(F)F)cc2)c2ccccc2)cc(OC)c1OC (configuration not stated) | 100 | Non-toxic | – |
| CN(CCC(Oc1ccc(C(F)(F)F)cc1)c1ccccc1)C(=S)NC(C)(C)C (configuration not stated) | 100 | Non-toxic | – |
| COc1ccc(NC(=S)N(C)CCC(Oc2ccc(C(F)(F)F)cc2)c2ccccc2)cc1 (configuration not stated) | 100 | Non-toxic | – |
| CC(C)NC(=S)N(C)CCC(Oc1ccc(C(F)(F)F)cc1)c1ccccc1 (configuration not stated) | 100 | Non-toxic | – |
| CN(C[C@@H]1CCc2ccccc2[C@@H]1Oc1ccc(C(F)(F)F)cc1)C(=S)NCCc1ccccc1 | 100 | Non-toxic | – |
| CN(C[C@@H]1CCc2ccccc2[C@@H]1Oc1ccc(C(F)(F)F)cc1)C(=O)NC1CCCCC1 | 100 | Non-toxic | – |
| CN(C[C@@H]1CCc2ccccc2[C@@H]1Oc1ccc(C(F)(F)F)cc1)C(=O)NCCc1ccccc1 | 100 | Non-toxic | – |
| CC1CCC(NC(=O)N(C)C[C@@H]2CCc3ccccc3[C@@H]2Oc2ccc(C(F)(F)F)cc2)CC1 (some centres not stated) | 80 | Non-toxic | – |
| CN(CCC(Oc1ccc(C(F)(F)F)cc1)c1ccccc1)C(=O)NC1CCCCC1 (configuration not stated) | 80 | Non-toxic | – |
| CN(CCC(Oc1ccc(C(F)(F)F)cc1)c1ccccc1)C(=S)NCCc1ccccc1 (configuration not stated) | 40 | Non-toxic | – |
| CN(CCC(Oc1ccc(C(F)(F)F)cc1)c1ccccc1)C(=S)NCc1ccccc1 (configuration not stated) | 100 | Non-toxic | – |
| Cc1ccc(NC(=S)N(C)CCC(Oc2ccc(C(F)(F)F)cc2)c2ccccc2)cc1 (configuration not stated) | 80 | Non-toxic | – |
| CN(CCC(Oc1ccc(C(F)(F)F)cc1)c1ccccc1)C(=O)NCCc1ccccc1 (configuration not stated) | 100 | Non-toxic | – |
| CN(CCC(Oc1ccc(C(F)(F)F)cc1)c1ccccc1)C(=S)NC1CCCCC1 (configuration not stated) | 100 | Non-toxic | – |
| CN(CCC(Oc1ccc(C(F)(F)F)cc1)c1ccccc1)C(=S)Nc1ccccc1 (configuration not stated) | 100 | Non-toxic | – |
| CN(CCC(Oc1ccc(C(F)(F)F)cc1)c1ccccc1)C(=S)NC(=O)c1ccccc1 (configuration not stated) | 100 | Non-toxic | – |
| CC1CCC(NC(=S)N(C)CCC(Oc2ccc(C(F)(F)F)cc2)c2ccccc2)CC1 (configuration not stated) | 60 | Non-toxic | – |
| CNCCC(Oc1ccc(C(F)(F)F)cc1)c1ccccc1 (configuration not stated) [FLUOXETINE] | 0 | – | 78.49 |
| COC(=O)[C@H]1[C@H]2C[C@@H]3c4[nH]c5cc(OC)ccc5c4CCN3C[C@H]2C[C@@H](OC(=O)c2cc(OC)c(OC)c(OC)c2)[C@@H]1OC [RESERPINE] | 100 | – | – |
